What was measured:
HuapoAI transgenic mice = experiment: Evaluation of triglyceride and cholesterol level in HuapoAI transgenic mice; assay type: in vivo; conditions: Mus musculus, 168 h, 30 mg/kg daily oral gavage 7 days
Procedure: Five to six week old male mice, transgenic for human apoAI [C57Bl/6-tgn(apoa1)lrub, Jackson Laboratory, Bar Harbor, Me.] were housed five per cage (10″×20″×8″ with aspen chip bedding) with food (Purina 5001) and water available at all times. After an acclimation period of 2 weeks, animals were individually identified by ear notches, weighed, and assigned to groups based on body weight. Beginning the following morning, mice were dosed daily by oral gavage for 7 days using a 20 gauge, 1½″ curved disposable feeding needle (Popper & Sons). Treatments were test compounds (30 mg/kg), a positive control (fenofibrate, 100 mg/kg) or vehicle [1% carboxymethylcellulose (w/v)/0.25% Tween80 (w/v); 0.2 ml/mouse]. Prior to termination on day 7, mice were weighed and dosed. Three hours after dosing, animals were anesthetized by inhalation of isoflurane (2-4%; Abbott Laboratories, Chicago, Ill.) and blood obtained via cardiac puncture (0.7-1.0 ml). Whole blood was transferred to serum separator tubes (Vacutainer SST), chilled on ice, and permitted to clot. Serum was obtained after centrifugation at 4° C. and frozen until analysis for triglycerides, total cholesterol, compound levels, and serum lipoprotein profile by fast protein liquid chromatography (FPLC) coupled to an inline detection system. After sacrifice by cervical dislocation, the liver, heart and epididymal fat pads were excised and weighed.
The animals dosed with vehicle had average triglycerides values of 60-80 mg/dl, which were reduced by the positive control fenofibrate (33-58 mg/dl with a mean reduction of 37%). The animals dosed with vehicle had average total serum cholesterol values of 140-180 mg/dl, which were increased by fenofibrate (190-280 mg/dl, with a mean elevation of 41%). […] Fenofibrate increased the amount of HDLc (68-96 v-sec with a mean percent increase of 48%).
Glucose was measured colorimetrically using commercially purchased reagents (Sigma #315-500). According to the manufacturers, the procedures were modified from published work (McGowan, M. W., Artiss, J. D., Strandbergh, D. R. & Zak, B. Clin Chem, 20:470-5 (1974) and Keston, A. Specific colorimetric enzymatic analytical reagents for glucose. Abstract of papers 129th Meeting ACS, 31C (1956).); and depend on the release of a mole of hydrogen peroxide for each mole of analyte, coupled with a color reaction first described by Trinder (Trinder, P. Determination of glucose in blood using glucose oxidase with an alternative oxygen acceptor. Ann Clin Biochem, 6:24 (1969)). The absorbance of the dye produced is linearly related to the analyte in the sample. The assays were further modified in our laboratory for use in a 96 well format. Standards (Sigma #339-11, Sigma #16-11, and Sigma #CC0534 for glucose triglycerides and total cholesterol, respectively), quality control plasma (Sigma # A2034), and samples (2 or 5 μl/well) were measured in duplicate using 200 μl of reagent. An additional aliquot of sample, pipetted to a third well and diluted in 200 μl water, provided a blank for each specimen. Plates were incubated at room temperature (18, 15, and 10 minutes for glucose, triglycerides and total cholesterol, respectively) on a plate shaker (DPC Micormix 5) and absorbance read at 500 nm (glucose and total cholesterol) or 540 nm (triglycerides) on a plate reader (Wallac Victor 1420). Sample absorbances were compared to a standard curve (100-800, 10-500, and 100-400 mg/dl for glucose, triglycerides and total cholesterol, respectively). Values for the quality control sample were always within the expected range and the coefficient of variation for samples was below 10%. All samples from an experiment were assayed at the same time to minimize inter-assay variability.
Serum lipoproteins were separated and cholesterol quantitated with an in-line detection system. Sample was applied to a Superose® 6 HR 10/30 size exclusion column (Amersham Pharmacia Biotech) and eluted with phosphate buffered saline-EDTA at 0.5 ml/min. […]

Compound | change in vivo at 30 mg/kg (HuapoAI transgenic mice; percent increase in FPLC HDLc area under the curve) | inhibition in vivo at 30 mg/kg (HuapoAI transgenic mice; serum, male human apoAI transgenic mice, read-out: % Triglyceride Reduction) | melting point
CC(C)(Oc1ccc(OCCc2coc(-c3ccccc3)n2)cc1)C(=O)[O-].[Na+] [Example 3, Sodium 2-methyl-2-{4-[2-(2-phenyloxazol-4-yl)ethoxy]phenoxy}propionate] | 63% | 66% | 199 to 200 °C
C=Cc1cccc(-c2nc(CCOc3ccc(OC(C)(C)C(=O)O)cc3)c(C)o2)c1 [Example 10A, 2-Methyl-2-(4-{2-[5-methyl-2-(3-vinylphenyl)oxazol-4-yl]ethoxy}phenoxy)propionic acid] | – | – | 137 to 139 °C
C#Cc1ccc(-c2nc(CCOc3ccc(OC(C)(C)C(=O)O)cc3)c(C)o2)cc1 [Example 11, 2-(4-{2-[2-(4-Ethynylphenyl)-5-methyloxazol-4-yl]ethoxy}phenoxy)-2-methylpropionic acid] | – | – | 137 to 139 °C
Cc1oc(-c2ccc(C(N)=O)cc2)nc1CCOc1ccc(OC(C)(C)C(=O)O)cc1 [Example 14, 2-(4-{2-[2-(4-Carbamoylphenyl)-5-methyloxazol-4-yl]ethoxy}phenoxy)-2-methylpropionic acid] | – | – | 126 to 127 °C
Cc1oc(-c2ccccc2)nc1CCOc1cccc(OC(C)(C)C(=O)O)c1 [Example 23, 2-methyl-2-{3-[2-(5-methyl-2-phenyloxazol-4-yl)ethoxy]phenoxy}propionic acid] | – | – | 140 to 141 °C
Cc1cc(OCCc2nc(-c3ccccc3)oc2C)ccc1OCC(=O)O [Example 25, {2-Methyl-4-[2-(5-methyl-2-phenyloxazol-4-yl)ethoxy]phenoxy}acetic acid] | – | – | 133 °C
Cc1sc(-c2ccccc2)nc1CCOc1ccc(OC(C)(C)C(=O)O)cc1 [Example 35, 2-Methyl-2-{4-[2-(5-methyl-2-phenyl-thiazol-4-yl)-ethoxy]phenoxy}-2-methyl-propionic acid] | – | – | 163.5 °C

Source: patent US7351728B2, “Oxazolyl-aryloxyacetic acid derivatives and their use as PPAR agonists” (Eli Lilly and Company, priority 2003, dated 2008)
